Values of other authors in patent US10703773B2, “Glycosyl hesperetin and process for producing the same and uses thereof” (Hayashibara Co. Ltd., priority 2014, dated 2020).

Details: in water at ambient temperature

Water solubility: about 0.002 w/v %
Compound: COc1ccc([C@@H]2CC(=O)c3c(O)cc(O[C@@H]4O[C@H](CO[C@@H]5O[C@@H](C)[C@H](O)[C@@H](O)[C@H]5O)[C@@H](O)[C@H](O)[C@H]4O)cc3O2)cc1O [hesperidin]
